Reference: the supplement of paper PMC9663587

What was measured:
Neratinib/HKI272 = compound: CCOc1cc2ncc(C#N)c(Nc3ccc(OCc4ccccn4)c(Cl)c3)c2cc1NC(=O)/C=C/CN(C)C [Neratinib/HKI272]; assay: increase in dead-cell fraction, 72 h; higher = more death;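 further: breast cancer cell lines in 384-well plates, stained with Hoechst plus LIVE/DEAD far red dye and imaged, cells above an LDR intensity threshold counted dead, Hoechst-negative corpses included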
[1] = compound: CCc1cnn2c(NCc3ccc[n+]([O-])c3)cc(N3CCCC[C@H]3CCO)nc12; assay: as above
[2] = compound: CC(=O)c1c(C)c2cnc(Nc3ccc(N4CCNCC4)cn3)nc2n(C2CCCC2)c1=O; assay: as above
LEE011/Ribociclib = compound: CN(C)C(=O)c1cc2cnc(Nc3ccc(N4CCNCC4)cn3)nc2n1C1CCCC1 [LEE011/Ribociclib]; assay: as above
[3] = compound: CCN1CCN(Cc2ccc(Nc3ncc(F)c(-c4cc(F)c5nc(C)n(C(C)C)c5c4)n3)nc2)CC1; assay: as above
Flavopiridol = compound: CN1CC[C@H](c2c(O)cc(O)c3c(=O)cc(-c4ccccc4Cl)oc23)[C@H](O)C1 [Flavopiridol]; assay: as above
BSJ-03-123 = compound: CC(=O)c1c(C)c2cnc(Nc3ccc(N4CCN(CCOCCOCCOCCNC(=O)COc5cccc6c5C(=O)N(C5CCC(=O)NC5=O)C6=O)CC4)cn3)nc2n(C2CCCC2)c1=O [BSJ-03-123]; assay: as above
THZ1 = compound: CN(C)C/C=C/C(=O)Nc1ccc(C(=O)Nc2cccc(Nc3ncc(Cl)c(-c4c[nH]c5ccccc45)n3)c2)cc1 [THZ1]; assay: as above
AZD6738 = compound: C[C@@H]1COCCN1c1cc(C2([S@](C)(=N)=O)CC2)nc(-c2cc[nH]c3nccc2-3)n1 [AZD6738]
BSJ-01-175 = compound: CN(C)C/C=C/C(=O)Nc1ccc(O[C@@H]2CCC[C@@H](Nc3ncc(Cl)c(-c4c[nH]c5ccccc45)n3)C2)cc1 [BSJ-01-175]
Vorinostat = compound: O=C(CCCCCCC(=O)Nc1ccccc1)NO [Vorinostat]
AZD2014 = compound: CNC(=O)c1cccc(-c2ccc3c(N4CCOC[C@@H]4C)nc(N4CCOC[C@@H]4C)nc3n2)c1 [AZD2014]
Tivantinib/ARQ197 = compound: O=C1NC(=O)[C@@H](c2cn3c4c(cccc24)CCC3)[C@@H]1c1c[nH]c2ccccc12 [Tivantinib/ARQ197]
AZD7762 = compound: NC(=O)Nc1cc(-c2cccc(F)c2)sc1C(=O)N[C@H]1CCCNC1 [AZD7762]
[4] = compound: COc1ccc2c(c1)[C@]1(C[C@H]1c1ccc3c(/C=C/c4ccc(CN5C[C@@H](C)O[C@@H](C)C5)cc4)n[nH]c3c1)C(=O)N2
[5] = compound: CCN1CCN(Cc2ccc(Nc3ncc(F)c(-c4cc(F)c5nc(C)n(C(C)C)c5c4)n3)nc2)CC1
[6] = compound: CC(=O)Nc1cccc(-n2c(=O)n(C3CC3)c(=O)c3c(Nc4ccc(I)cc4F)n(C)c(=O)c(C)c32)c1
[7] = compound: CCC1=CN=CN=C1N2CCN(CC2)CC3=NC4=C(N3)C=C(C=C4)C(F)(F)F
Ipatasertib/GDC0068 = compound: CC(C)NC[C@@H](C(=O)N1CCN(c2ncnc3c2[C@H](C)C[C@H]3O)CC1)c1ccc(Cl)cc1 [Ipatasertib/GDC0068]
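Wherever GR50, 72 h is given: breast cancer and non-malignant breast epithelial cell lines, Deep Dye Drop or Dye Drop imaging, nine half-log doses, GR normalized to time-zero plates and DMSO-only controls.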

## MDAMB453
Neratinib/HKI272; 0.0003162 µM
  increase in dead-cell fraction: 0.0316
Neratinib/HKI272; 0.001 µM
  increase in dead-cell fraction: 0.0419
Neratinib/HKI272; 0.003162 µM
  increase in dead-cell fraction: 0.0613
Neratinib/HKI272; 0.01 µM
  increase in dead-cell fraction: 0.0661
Neratinib/HKI272; 0.03162 µM
  increase in dead-cell fraction: 0.119
Neratinib/HKI272; 0.1 µM
  increase in dead-cell fraction: 0.106
Neratinib/HKI272; 0.3162 µM
  increase in dead-cell fraction: 0.177
Neratinib/HKI272; 1 µM
  increase in dead-cell fraction: 0.212
Neratinib/HKI272; 3.162 µM
  increase in dead-cell fraction: 0.348
[1]; 0.0001 µM
  increase in dead-cell fraction: 0.0187
[1]; 0.0003162 µM
  increase in dead-cell fraction: -0.0038
[1]; 0.001 µM
  increase in dead-cell fraction: -0.0082
[1]; 0.003162 µM
  increase in dead-cell fraction: -0.004
[1]; 0.01 µM
  increase in dead-cell fraction: 0.0474
[1]; 0.03162 µM
  increase in dead-cell fraction: 0.251
[1]; 0.1 µM
  increase in dead-cell fraction: 0.309
[1]; 0.3162 µM
  increase in dead-cell fraction: 0.286
[1]; 1 µM
  increase in dead-cell fraction: 0.318
[2]; 0.0003162 µM
  increase in dead-cell fraction: 0.0265
[2]; 0.001 µM
  increase in dead-cell fraction: 0.0374
[2]; 0.003162 µM
  increase in dead-cell fraction: 0.016
[2]; 0.01 µM
  increase in dead-cell fraction: 0.0502
[2]; 0.03162 µM
  increase in dead-cell fraction: 0.0578
[2]; 0.1 µM
  increase in dead-cell fraction: 0.115
[2]; 0.3162 µM
  increase in dead-cell fraction: 0.124
[2]; 1 µM
  increase in dead-cell fraction: 0.123
[2]; 3.162 µM
  increase in dead-cell fraction: 0.117
LEE011/Ribociclib; 0.001 µM
  increase in dead-cell fraction: 0.0026
LEE011/Ribociclib; 0.003162 µM
  increase in dead-cell fraction: 0.0128
LEE011/Ribociclib; 0.01 µM
  increase in dead-cell fraction: 0.0136
LEE011/Ribociclib; 0.03162 µM
  increase in dead-cell fraction: 0.016
LEE011/Ribociclib; 0.1 µM
  increase in dead-cell fraction: 0.025
LEE011/Ribociclib; 0.3162 µM
  increase in dead-cell fraction: 0.0275
LEE011/Ribociclib; 1 µM
  increase in dead-cell fraction: 0.0212
LEE011/Ribociclib; 3.162 µM
  increase in dead-cell fraction: 0.0344
LEE011/Ribociclib; 10 µM
  increase in dead-cell fraction: 0.05
[3]; 0.001 µM
  increase in dead-cell fraction: 0.0151
[3]; 0.003162 µM
  increase in dead-cell fraction: 0.0243
[3]; 0.01 µM
  increase in dead-cell fraction: 0.117
[3]; 0.03162 µM
  increase in dead-cell fraction: 0.134
[3]; 0.1 µM
  increase in dead-cell fraction: 0.124
[3]; 0.3162 µM
  increase in dead-cell fraction: 0.104
[3]; 1 µM
  increase in dead-cell fraction: 0.15
[3]; 3.162 µM
  increase in dead-cell fraction: 0.147
[3]; 10 µM
  increase in dead-cell fraction: 0.626
Flavopiridol; 0.0001 µM
  increase in dead-cell fraction: -0.0017
Flavopiridol; 0.0003162 µM
  increase in dead-cell fraction: -0.0022
Flavopiridol; 0.001 µM
  increase in dead-cell fraction: -0.0038
Flavopiridol; 0.003162 µM
  increase in dead-cell fraction: -0.0016
Flavopiridol; 0.01 µM
  increase in dead-cell fraction: -0.0001
Flavopiridol; 0.03162 µM
  increase in dead-cell fraction: -0.0034
Flavopiridol; 0.1 µM
  increase in dead-cell fraction: 0.0018
Flavopiridol; 0.3162 µM
  increase in dead-cell fraction: 0.0317
Flavopiridol; 1 µM
  increase in dead-cell fraction: 0.168
BSJ-03-123; 0.001 µM
  increase in dead-cell fraction: -0.0008
BSJ-03-123; 0.003162 µM
  increase in dead-cell fraction: -0.0002
BSJ-03-123; 0.01 µM
  increase in dead-cell fraction: -0.0018
BSJ-03-123; 0.03162 µM
  increase in dead-cell fraction: 0.0081
BSJ-03-123; 0.1 µM
  increase in dead-cell fraction: 0.0016
BSJ-03-123; 0.3162 µM
  increase in dead-cell fraction: 0.0031
BSJ-03-123; 1 µM
  increase in dead-cell fraction: 0.0138
BSJ-03-123; 3.162 µM
  increase in dead-cell fraction: 0.007
BSJ-03-123; 10 µM
  increase in dead-cell fraction: 0.0618
THZ1; 0.0001 µM
  increase in dead-cell fraction: 0.0006
THZ1; 0.0003162 µM
  increase in dead-cell fraction: -0.0024
THZ1; 0.001 µM
  increase in dead-cell fraction: -0.0042
THZ1; 0.003162 µM
  increase in dead-cell fraction: 0.0021
THZ1; 0.01 µM
  increase in dead-cell fraction: 0.0161
THZ1; 0.03162 µM
  increase in dead-cell fraction: 0.0525
THZ1; 0.1 µM
  increase in dead-cell fraction: 0.133
THZ1; 0.3162 µM
  increase in dead-cell fraction: 0.101
THZ1; 1 µM
  increase in dead-cell fraction: 0.122
AZD6738
  GR50, 72 h: 4.74 µM
BSJ-01-175
  GR50, 72 h: 0.00336 µM
Vorinostat
  GR50, 72 h: 0.944 µM
AZD2014
  GR50, 72 h: 0.00364 µM
Tivantinib/ARQ197
  GR50, 72 h: 0.201 µM
AZD7762
  GR50, 72 h: 0.0116 µM
[4]
  GR50, 72 h: 0.00348 µM
[5]
  GR50, 72 h: 0.00577 µM
[6]
  GR50, 72 h: 0.0339 µM
[7]
  GR50, 72 h: 4.29 µM
Ipatasertib/GDC0068
  GR50, 72 h: 0.542 µM
